{
  "source": "patent US20190032014A1",
  "about": "“USING MICROBIOTA METABOLITES TO DIFFERENTIATE NAÏVE T-CELLS AND RELATED METHODS TO INDUCE OR PREVENT INFLAMMATORY CONDITIONS” (THE TEXAS A&M UNIVERSITY SYSTEM, priority 2016, published 2019)",
  "key": {"CD4+ CD25− naïve T cells [1]": {"test_system": "CD4+ CD25− naïve T cells", "assay": "In vitro naïve T cell differentiation, Treg-skew (FoxP3+ by FACS)", "assay_type": "cell-based, C57BL/6 mice", "details": "Treg skewing conditions, vs DMF control", "description": "(§1) Mesenteric lymph node (MLN) and spleen are harvested from WT or FOXP3^EGFP C57Bl/6 mice and homogenized. Spleen tissue is subjected to red blood cell lysis and pooled into a single cell suspension for counting. Counted cells are resuspended in sterile FACS buffer (PBS++ with 05% bovine serum albumin) at a concentration of ˜5×10^7 cells/mL and stained for 45 minutes at 4° C. with anti-CD4 and anti-CD25 fluorophore-conjugated monoclonal antibodies (mAb). After two washes, the stained cells are resuspended at ˜6×10^6 cells/mL in FACS buffer and immediately sorted. […] TDMMs are solubilized in DMF at 2 M and used at desired concentrations (e.g., 0.01, 0.1, 0.5 and 1.0 mM) in growth media; DMF in growth media (0.05%) is used as a solvent control.\n(§2) The % of Treg or Th17 cells are determined based on the expression of signature transcription factors, FoxP3 and Rorγt, respectively. In addition, signature cytokine markers for Treg and Th17, TGFβ or IL-17, respectively, among others are measured using intracellular cytokine staining. Since it is possible that a cell could be positive for FoxP3 and still express some IL-17, the final % of Tregs are determined as the cell population that is FoxP3+TGFβ+ Rorγt-IL-17−. Similarly, the % of Th17 cells are determined as the population that is FoxP3-TGFβ− Rorγt+IL-17+.\n(§3) CD4+ CD25− T cells were isolated to high purity (>98%) from the pooled spleen and mesenteric lymph nodes of C57BL/6 mice (Jackson Labs) with a BD FACS Aria II flow cytometer. Fc Block (BD), αCD4-efluor450 (eBioscience clone GK1.5) and αCD25-PECy7 (eBioscience clone PC61.5) antibodies were used for staining before sorting.\n(§4) For Th1-skew: 5 ng/mL IL-12 (Peprotech cat. #210-12) and 10 µg/mL αIL-4 (BioXCell clone 11B11) were added to culture. For Th2-skew: 10 ng/mL IL-4 (Peprotech) and 10 μg/mL αIFN-γ (BioXCell clone R4-6A2) were added to culture. For Th17-skew: 10 ng/mL IL-6 (Peprotech), 5 ng/mL IL-23 (R&D), 0.5 ng/mL TGF-β (Peprotech), 10 μg/mL al-4 (BioXCell clone 11B11), and 10 μg/mL αIFN-γ (BioXCell clone R4-6A2) were added to culture. For Treg-skew: 2 ng/mL TGF-β (Peprotech) and 100 U/mL IL-2 (Roche) were added to culture. Sodium Propionate, sodium acetate, sodium butyrate and sodium chloride (all from Sigma-Aldrich) were solubilized in media and added to culture. Indole was solubilized in DMF (both from Sigma-Aldrich) at 2M and brought to final concentration in media. MGCD0103 (Selleck Chemicals) was solubilized in DMF at 2 mM and brought to final concentration in media. A 0.05% DMF solvent control was used for all experiments."}, "CD4+ CD25− naïve T cells [2]": {"test_system": "CD4+ CD25− naïve T cells", "assay": "In vitro naïve T cell differentiation, Th17-skew (IL-17+ by FACS)", "assay_type": "cell-based, C57BL/6 mice", "details": "Th17 skewing conditions, vs DMF control", "description": "as §1, §2, §3, §4"}, "naïve T cells": {"test_system": "naïve T cells", "details": "Arpaia et al. 2013; cited from earlier work"}, "CD4+ CD25− naïve T cells [3]": {"test_system": "CD4+ CD25− naïve T cells", "assay": "In vitro naïve T cell differentiation, Th1-skew (IFN-γ+)", "assay_type": "cell-based, C57BL/6 mice", "details": "Th1 skewing conditions; vs solvent control; listed as 5-HI", "description": "When naïve CD4+ CD25− cells were cultured 72 hours in αCD3/28 coated wells with Th0-, Th1- or Th2-skew cytokines and indole or solvent control, followed by stimulation with PMA, Ionomycin and Golgi Plug for the last 5 hours of culture, no effect on the % of Th1 and Th2 cells was observed (in contrast to the significant effect that indole has on Treg and Th17 cells; see FIGS. 2A and 2B).\nas §3, §4"}, "IL-6 receptor / pSTAT3": {"test_system": "IL-6 receptor / pSTAT3", "assay": "IL-6 receptor levels and STAT3 activity", "assay_type": "cell-based", "details": "vs control", "description": "Indole and 5-HI were assessed for impact on TGF-β receptor expression and SMAD2/3 activity. […] Indole and 5-HI were also assessed for impact on IL-6 receptor levels and subsequent STAT3 activity."}, "[4]": {"test_system": "wild-type or AhR KO T cells", "assay": "T cell differentiation in wild-type vs AhR KO T cells", "assay_type": "cell-based, mice", "description": "The aryl hydrocarbon receptor (AhR) is implicated in the differentiation of Treg and Th17 cells. The role of AhR was assessed with respect to indole's effect on Treg augmentation. Wild-type and AhR KO naïve T-cells were conditioned with increasing amounts of indole and then assessed for % of FoxP3 expression. […] Additionally, the role of AhR was assessed with respect to indole's effect on Th17 inhibition.\nThe AhR knockout was further investigated for iTreg homing markers, CD62L and α4β7, as described above.\nNext, the AhR knockout was further investigated for the impact of AhR on 5-HI-mediated T cell differentiation."}, "[5]": {"test_system": "naïve T cells obtained from humans", "assay": "Skewing of naïve T cells obtained from humans", "assay_type": "cell-based"}, "Th17 transfer colitis": {"test_system": "Th17 transfer colitis", "assay": "Th17 transfer colitis murine model", "assay_type": "in vivo, Rag-null mice", "description": "Finally, the presentation describes a study of the effects of an indole-induced iTreg skew on the course of colitis in a Th17 transfer colitis murine model. […] Briefly, naïve T-cells (CD4+CD25−) were cultured in vitro with cytokines to skew function towards a Th17 phenotype, in the presence of indole or 5-HI, or not. The skewed cultures were transferred to Rag-null mice (lack T- and B-lymphocytes); control mice received no T-cells. Mice were monitored for weight loss (as a measure of inflammation) over several weeks and assessed at indicated timepoints for T-cell phenotype.\nThe body weight of the mice was monitored from the time of cell transfer to the end point of day 49. […] Next, the Treg, Th17, and Th1 differentiation was assessed in cells obtained from the mesenteric lymph nodes (MLN) of mice administered directly with indole, 5-HI and control. These cells were determined/assayed by FACS for phenotype directly ex vivo from mice that were treated as in FIG. 28."}, "CD4+ CD25− naïve T cells [6]": {"test_system": "CD4+ CD25− naïve T cells", "assay": "In vitro naïve T cell differentiation, Th17-skew (IL-17+ by FACS)", "assay_type": "cell-based, C57BL/6 mice", "details": "low and high titrations of IL-6"}, "[7]": {"details": "MLN, D15 and D45, by the end point"}},
  "note": "Entries after “also recorded” stand apart in the source; their conditions may differ.",
  "data": [
    {"smiles": "O=C(O)C(=O)Cc1c[nH]c2ccccc12", "note": "[Indole-3-pyruvate]", "values": [
      {"measurement": "effect on % FoxP3+ cells / Treg differentiation", "setting": "CD4+ CD25− naïve T cells [1]", "result": "increasing Treg cells"},
      {"measurement": "effect on % IL-17+ cells / Th17 differentiation", "setting": "CD4+ CD25− naïve T cells [2]", "result": "modest (but significant) decrease in Th17"}
    ]},
    {"smiles": "CCC(=O)O", "note": "[propionate, reference compound]", "values": [
      {"measurement": "effect on % FoxP3+ cells / Treg differentiation", "setting": "CD4+ CD25− naïve T cells [1]", "result": "increases Treg and Th17 development"},
      {"measurement": "effect on % IL-17+ cells / Th17 differentiation", "setting": "CD4+ CD25− naïve T cells [2]", "result": "increases Treg and Th17 development"},
      {"measurement": "differentiation of naïve T cells to Treg cells", "setting": "naïve T cells", "result": "promoted differentiation of naïve T cells to Treg cells"}
    ]},
    {"smiles": "CC(=O)O", "note": "[acetate, reference compound]", "values": [
      {"measurement": "effect on % FoxP3+ cells / Treg differentiation", "setting": "CD4+ CD25− naïve T cells [1]", "result": "no effect on Treg development"},
      {"measurement": "effect on % IL-17+ cells / Th17 differentiation", "setting": "CD4+ CD25− naïve T cells [2]", "result": "increases Th17 development"}
    ]},
    {"smiles": "Oc1ccc2[nH]ccc2c1", "note": "[5-hydroxyindole]", "values": [
      {"measurement": "effect on % FoxP3+ cells / Treg differentiation", "setting": "CD4+ CD25− naïve T cells [1]", "result": "decreasing the Treg population"},
      {"measurement": "effect on % FoxP3+ cells / Treg differentiation", "setting": "CD4+ CD25− naïve T cells [1]; listed as 5-HI", "result": "inhibits a Treg response; also recorded: strongly inhibits Treg differentiation; also recorded: decreased the % FoxP3+ cells"},
      {"measurement": "effect on % IL-17+ cells / Th17 differentiation", "setting": "CD4+ CD25− naïve T cells [2]", "result": "increases Th17 cells"},
      {"measurement": "effect on % IL-17+ cells / Th17 differentiation", "setting": "CD4+ CD25− naïve T cells [2]; listed as 5-HI", "result": "pro-Th17 response; also recorded: promotes Th1 and Th17 differentiation; also recorded: significant increase in % IL-17+ cells"},
      {"measurement": "effect on % Th1 cells (IFN-γ+)", "setting": "CD4+ CD25− naïve T cells [3]", "result": "promotes Th1 and Th17 differentiation; also recorded: increase in % IFN-γ+ cells"},
      {"measurement": "% pSTAT3+ cells / IL-6 induced stat3", "setting": "IL-6 receptor / pSTAT3", "result": "augments the IL-6 induced stat3 expression"},
      {"measurement": "% IL-17+ in wild-type vs AhR KO T cells", "setting": "[4]", "result": "significantly increased over wild-type cells"},
      {"measurement": "% of IFN-γ+ T cells in AhR KO vs wild-type T cells", "setting": "[4]; Th1 skew", "result": "not significantly different than in wild-type cells"},
      {"measurement": "FoxP3+ % in wild-type vs AhR KO T cells", "setting": "[4]; increasing amounts of test substance", "result": "decreases similarly in wild-type and AhR KO cells"},
      {"measurement": "skewing effects on Tregs and Th17 cells in human cells", "setting": "[5]", "result": "recapitulated on naïve T cells obtained from humans"},
      {"measurement": "Th1 differentiation in vivo (% INF-γ+ T cells, Th1/Treg balance, MLN)", "setting": "Th17 transfer colitis; [7]", "result": "increases the number of Th17 differentiation in vivo"},
      {"measurement": "Th17 differentiation in vivo (% IL-17+ T cells, Th17/Treg balance, MLN)", "setting": "Th17 transfer colitis; [7]", "result": "increases the number of Th17 differentiation in vivo"},
      {"measurement": "weight change (% from starting weight)", "setting": "Th17 transfer colitis; mice receiving conditioned Th17 T cells, around day 43, end point day 49", "result": "declined precipitously"},
      {"measurement": "Th17 transfer colitis in vivo (overall)", "setting": "Th17 transfer colitis; mouse, in vivo", "result": "exacerbates Th17 transfer colitis in vivo"},
      {"measurement": "% IL-17+ cells with titrations of IL-6", "setting": "CD4+ CD25− naïve T cells [6]", "result": "increased the % IL-17+ cells"}
    ]}
  ]
}
